For the assay, the target named is T1, human adenosine A2A receptor (Homo sapiens, UniProt P29274).
T1 construct: expressed in transfected cells; host or cells: CHO cells, semliki forest virus expression system; membrane preparation
Kind of assay: Human adenosine A2A receptor [3H]-SCH-58261 binding assay. Conditions: human A2a receptor, membranes of CHO cells, [3H]-SCH-58261; read-out: pKi (affinity to the human A2a receptor) (converted). On the procedure: The gene encoding human adenosine A2A receptor was recombinantly introduced and expressed in chinese hamster ovary (CHO) cells using the semliki forest virus expression system. Cells were harvested, washed twice by centrifugation, homogenised and again washed by centrifugation. The final washed membrane pellet was suspended in a Tris (50 mM) buffer containing 120 mM NaCl, 5 mM KCl, 2 mM CaCl2 and 10 mM MgCl2 (pH 7.4) (buffer A). The [^3H]-SCH-58261 (Dionisotti et al., 1997, Br. J. Pharmacol. 121, 353; 1 nM) binding assay was carried out in 96-well plates in the presence of 2.5 μg of membrane protein, 0.5 mg of Ysi-poly-1-lysine SPA beads and 0.1 U adenosine deaminase in a final volume of 200 μl of buffer A. Non-specific binding was defined using xanthine amine congener (XAC; […]). Compounds were tested at 10 concentrations from 10 μM-0.3 nM. All assays were conducted in duplicate and repeated at least two times. Assay plates were incubated for 1 hour at room temperature before centrifugation and then bound ligand determined using a Packard Topcount scintillation counter. IC50 values were calculated using a non-linear curve fitting program and Ki values calculated using the Cheng-Prussoff equation.

T1 sequence (P29274 whole entry): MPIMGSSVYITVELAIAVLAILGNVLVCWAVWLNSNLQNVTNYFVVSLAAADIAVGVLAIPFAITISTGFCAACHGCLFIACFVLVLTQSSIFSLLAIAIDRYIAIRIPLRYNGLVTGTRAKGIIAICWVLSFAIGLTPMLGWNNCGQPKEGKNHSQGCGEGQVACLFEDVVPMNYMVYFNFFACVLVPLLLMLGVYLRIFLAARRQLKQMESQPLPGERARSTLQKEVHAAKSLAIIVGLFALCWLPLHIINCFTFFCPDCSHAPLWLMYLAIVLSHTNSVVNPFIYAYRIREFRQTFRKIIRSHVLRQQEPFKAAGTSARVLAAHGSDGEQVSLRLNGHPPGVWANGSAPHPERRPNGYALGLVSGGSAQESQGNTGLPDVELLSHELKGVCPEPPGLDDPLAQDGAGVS

For the compound `COc1ccccc1CNc1nc(N)nc(-c2ccco2)c1C#N` [Example 293, 2-Amino-4-furan-2-yl-6-(2-methoxy-benzylamino)-pyrimidine-5-carbonitrile], the Ki was 3.72 nM. In the case of `N#Cc1c(NCc2ccc3ccccc3n2)nc(N)nc1-c1ccco1` [Example 297, 2-Amino-4-furan-2-yl-6-[(quinolin-2-ylmethyl)-amino]-pyrimidine-5-carbonitrile] it was 1.38 nM; in that of `N#Cc1c(NCCSc2ccccc2)nc(N)nc1-c1ccco1` [Example 302, 2-Amino-4-furan-2-yl-6-(2-phenylsulfanyl-ethylamino)-pyrimidine-5-carbonitrile], 7.76 nM; in that of `N#Cc1c(NCc2ccccc2N)nc(N)nc1-c1ccco1` [Example 304, 2-Amino-4-(2-amino-benzylamino)-6-furan-2-yl-pyrimidine-5-carbonitrile], 3.55 nM.

As to `N#Cc1c(NCc2ccc(N)cc2)nc(N)nc1-c1ccco1` [Example 305, 2-Amino-4-(4-amino-benzylamino)-6-furan-2-yl-pyrimidine-5-carbonitrile], the Ki is 8.91 nM. Turning to `CN(C)c1ccc(CNc2nc(N)nc(-c3ccco3)c2C#N)cc1` [Example 312, 2-Amino-4-(4-dimethylamino-benzylamino)-6-furan-2-yl-pyrimidine-5-carbonitrile], the Ki is 9.77 nM. In the case of `N#Cc1c(SCCc2ccccn2)nc(N)nc1-c1ccco1` [Example 313, 2-Amino-4-furan-2—,yl-6-(2-pyridin-2-yl-ethylsulfanyl)-pyrimidine-5-carbonitrile] it was 0.832 nM. Take `Nc1nc(OCCCc2ccccc2)c(Cl)c(-c2ccco2)n1` [Example 321, 5-Chloro-4-furan-2-yl-6-(3-phenyl-propoxy)-pyrimidin-2-yl-amine]: the Ki is 2.82 nM. In the case of `Nc1nc(OCCc2ccccc2)c(Cl)c(-c2ccco2)n1` [Example 322, 5-Chloro-4-furan-2-yl-6-phenethyloxy-pyrimidin-2-yl-amine], the Ki is 9.77 nM. In the case of `Nc1nc(SCc2ccccc2)c(Cl)c(-c2ccco2)n1` [Example 324, 4-Benzylsulfanyl-5-chloro-6-furan-2-yl-pyrimidin-2-yl-amine], the Ki is 9.12 nM. In the case of `N#Cc1c(NCCNc2ccccn2)nc(N)nc1-c1ccco1` [Example 330, 2-Amino-4-furan-2-yl-6-[2-(pyridin-2-ylamino)-ethylamino]-pyrimidine-5-carbonitrile] it was 7.94 nM; in that of `N#Cc1c(-c2ccco2)nc(N)nc1N1CCc2ccccc2C1` [Example 336, 2-Amino-4-(3,4-dihydro-1H-isoquinolin-2-yl)-6-furan-2-yl-pyrimidine-5-carbonitrile], 8.13 nM; in that of `N#Cc1c(NCc2ccc3c(c2)OCO3)nc(N)nc1-c1ccco1` [Example 337, 2-Amino-4-[(benzo [1,3]dioxol-5-ylmethyl)-amino]-6-furan-2-yl-pyrimidine-5-carbonitrile], 6.61 nM.

For the compound `N#Cc1c(NCc2cccc(C(F)(F)F)c2)nc(N)nc1-c1ccco1` [Example 346, 2-Amino-4-furan-2-yl-6-(3-trifluoromethyl-benzylamino)-pyrimidine-5-carbonitrile], the Ki is 2.4 nM. In the case of `Cc1ccc(CNc2nc(N)nc(-c3ccco3)c2C#N)cc1C` [Example 347, 2-Amino-4-(3,4-dimethyl-benzylamino)-6-furan-2-yl-pyrimidine-5-carbonitrile] it was 1.66 nM; in that of `Cc1ccnc(CNc2nc(N)nc(-c3ccco3)c2C#N)c1` [Example 348, 2-Amino-4-furan-2-yl-6-[(4-methyl-pyridin-2-ylmethyl)-amino]-pyrimidine-5-carbonitrile], 2.09 nM; in that of `Nc1nc(SCCc2ccccn2)c(I)c(-c2ccco2)n1` [Example 352, 4-Furan-2-yl-5-iodo-6-(2-pyridin-2-yl-ethylsulfanyl)-pyrimidin-2-yl-amine], 5.13 nM.

With `Nc1nc(SCCc2ccccn2)c(Br)c(-c2ccco2)n1` [Example 353, 5-Bromo-4-furan-2-yl-6-(2-pyridin-2-yl-ethylsulfanyl)-pyrimidin-2-yl-amine], the Ki is 3.8 nM. Take `Nc1nc(SCCc2ccccn2)c(Cl)c(-c2ccco2)n1` [Example 354, 5-Chloro-4-furan-2-yl-6-(2-pyridin-2-yl-ethylsulfanyl)-pyrimidin-2-yl-amine]: the Ki is 4.9 nM.

Consider `N#Cc1c(OCc2ccccn2)cc(N)nc1-c1ccco1` [Example 355, 6-Amino-2-furan-2-yl-4-(pyridin-2-yl-methoxy)-nicotinonitrile], for which the Ki is 3.02 nM. On to `N#Cc1c(SCCc2ccccn2)cc(N)nc1-c1ccco1` [Example 356, 6-Amino-2-furan-2-yl-4-(2-pyridin-2-yl-ethylsulfanyl)-nicotinonitrile], for which the Ki is 0.912 nM.

For the compound `N#Cc1c(NCc2ccc(C(F)(F)F)cc2)cc(N)nc1-c1ccco1` [Example 357], the Ki is 9.12 nM. As to `N#Cc1c(NCc2ccccc2Br)nc(N)nc1-c1ccco1` [Example 359, 2-Amino-4-(2-bromo-benzylamino)-6-furan-2-yl-pyrimidine-5-carbonitrile], the Ki was 0.631 nM. The result for `N#Cc1c(NCc2ccccc2Cl)nc(N)nc1-c1ccco1` [Example 360, 2-Amino-4-(2-chloro-benzylamino)-6-furan-2-yl-pyrimidine-5-carbonitrile] reads 0.589 nM; that for `Cc1cccnc1COc1nc(N)nc(-c2ccco2)c1C#N` [Example 361, 2-Amino-4-furan-2-yl-6-(3-methyl-pyridin-2-yl-methoxy)-pyrimidine-5-carbonitrile], 0.603 nM; that for `Cc1ccc(COc2nc(N)nc(-c3ccco3)c2C#N)nc1` [Example 362, 2-Amino-4-furan-2-yl-6-(5-methyl-pyridin-2-yl-methoxy)-pyrimidine-5-carbonitrile], 2.63 nM. With `Cc1ccc(CNc2nc(N)nc(-c3ccco3)c2C#N)nc1` [Example 363, 2-Amino-4-furan-2-yl-6-[(5-methyl-pyridin-2-yl-methyl)-amino]-pyrimidine-5-carbonitrile], the Ki is 3.24 nM. The result for `N#Cc1c(NCc2ccc3ccccc3n2)cc(N)nc1-c1ccco1` [Example 364, 6-Amino-2-furan-2-yl-4-[(quinolin-2-ylmethyl)-amino]-nicotinonitrile] reads 3.89 nM; that for `N#Cc1c(OCc2cc3ccccc3cn2)nc(N)nc1-c1ccco1` [Example 366, 2-Amino-4-furan-2-yl-6-(isoguinolin-3-yl-methoxy)-pyrimidine-5-carbonitrile], 1.82 nM; that for `N#Cc1c(NCc2cc3ccccc3cn2)nc(N)nc1-c1ccco1` [Example 367, 2-Amino-4-furan-2-yl-6-[(isoguinolin-3-yl-methyl)-amino]-pyrimidine-5-carbonitrile], 2.29 nM. With `Cc1cccnc1CNc1nc(N)nc(-c2ccco2)c1C#N` [Example 368, 2-Amino-4-furan-2-yl-6-[(3-methyl-pyridin-2-yl-methyl)-amino]-pyrimidine-5-carbonitrile], the Ki is 1.86 nM. The result for `N#Cc1c(SCCc2ccccn2)nc(N)nc1-c1cccs1` [Example 370] reads 8.91 nM; that for `N#Cc1c(NCc2ccccn2)cc(N)nc1-c1ccco1` [Example 371, 6-Amino-2-furan-2-yl-4-[(pyridin-2-yl-methyl)-amino]-nicotinonitrile], 8.13 nM.

The record behind these values is US6586441B2, “Adenosine receptor ligands and their use in the treatment of disease” (Hoffman-La Roche Inc., priority 2000, dated 2003).
